From publication PMC5216130, “Saturated palmitic acid induces myocardial inflammatory injuries through direct binding to TLR4 accessory protein MD2” (Nature Communications, 2017) come the findings set out here.

Experiment [1] concerns the target T1, MD2 (myeloid differentiation protein 2; rhMD2) (Homo sapiens, UniProt Q9Y6Y9).
T1 construct: gene LY96; recombinant human MD2 (rhMD2)
T1 sequence (Q9Y6Y9 19-160): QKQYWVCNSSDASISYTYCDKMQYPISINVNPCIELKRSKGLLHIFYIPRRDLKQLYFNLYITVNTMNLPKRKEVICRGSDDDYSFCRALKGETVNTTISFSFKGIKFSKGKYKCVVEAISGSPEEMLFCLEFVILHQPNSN
Nature of the experiment: ForteBio Octet HTX (called SPR in the paper). The experiment is classed as binding.

The target of experiment [2] is T1, MD2 (myeloid differentiation protein 2; rhMD2). The experiment can be described thus: SPR (ProteOn XPR36); confirmed on ForteBio Octet HTX (KD=[…]) and by biotin-PA ELISA. The experiment is classed as binding. (In general: Biolayer interferometry detects binding as a change in optical thickness at a sensor tip.)

As usually defined, the Kd is a measure of binding affinity in units of concentration. As to `CCCCC/C=C\C/C=C\CCCCCCCC(=O)O` [linoleic acid], the dissociation constant Kd in experiment [1] is 54 µM.

As to `CCCCCCCC/C=C\CCCCCCCC(=O)O` [oleic acid], the Kd in experiment [1] (read-out: Kd) stood at 35 µM.

`CCCCCCCCCCCCCCCC(=O)O` [PA, palmitic acid] gave a Kd in experiment [2] of 31.6 µM.
